Results as given in ChEMBL document CHEMBL5154842, “Unique Carbazole-Oxadiazole Derivatives as New Potential Antibiotics for Combating Gram-Positive and -Negative Bacteria” (J Med Chem, 2022).
≈ marks a conversion by molar mass, not a printed value. Calls of active or inactive are those of the source. The rule behind the calls is not given here.

How the values were obtained:
Pseudomonas aeruginosa [1] = test: Antibacterial activity against Pseudomonas aeruginosa assessed as inhibition of bacterial growth incubated for 24 hrs by CLSI protocol based two fold serial dilution method; format: functional
Enterococcus faecalis = test: Antibacterial activity against Enterococcus faecalis assessed as inhibition of bacterial growth incubated for 24 hrs by CLSI protocol based two fold serial dilution method; format: functional
Staphylococcus aureus [2] = test: Antibacterial activity against Staphylococcus aureus 25923 assessed as inhibition of bacterial growth incubated for 24 hrs by CLSI protocol based two fold serial dilution method; format: functional
Acinetobacter baumannii = test: Antibacterial activity against Acinetobacter baumannii assessed as inhibition of bacterial growth incubated for 24 hrs by CLSI protocol based two fold serial dilution method; format: functional
Staphylococcus aureus [3] = test: Antibacterial activity against Staphylococcus aureus 29213 assessed as inhibition of bacterial growth incubated for 24 hrs by CLSI protocol based two fold serial dilution method; format: functional
Escherichia coli [4] = test: Antibacterial activity against Escherichia coli 25922 assessed as inhibition of bacterial growth incubated for 24 hrs by CLSI protocol based two fold serial dilution method; format: functional
Pseudomonas aeruginosa [5] = test: Antibacterial activity against Pseudomonas aeruginosa ATCC 27853 assessed as change in susceptibility at sub-MIC treated over 9 serial passages measured after 9 days by resistance development assay; format: functional, organism-based; conditions: time 9.0 day
Pseudomonas aeruginosa [6] = test: Antibacterial activity against Pseudomonas aeruginosa ATCC 27853 assessed as inhibition of bacterial growth incubated for 24 hrs by CLSI protocol based two fold serial dilution method; format: functional
Staphylococcus aureus [7] = test: Antibacterial activity against methicillin-resistant Staphylococcus aureus N315 assessed as change in susceptibility at sub-MIC treated over 9 serial passages measured after 9 days by resistance development assay; format: functional, organism-based; conditions: time 9.0 day
Klebsiella pneumoniae = test: Antibacterial activity against Klebsiella pneumonia assessed as inhibition of bacterial growth incubated for 24 hrs by CLSI protocol based two fold serial dilution method; format: functional
Escherichia coli [8] = test: Antibacterial activity against Escherichia coli assessed as inhibition of bacterial growth incubated for 24 hrs by CLSI protocol based two fold serial dilution method; format: functional
Staphylococcus aureus [9] = test: Antibacterial activity against methicillin-resistant Staphylococcus aureus N315 assessed as inhibition of bacterial growth incubated for 24 hrs by CLSI protocol based two fold serial dilution method; format: functional
Staphylococcus aureus [10] = test: Antibacterial activity against Staphylococcus aureus assessed as inhibition of bacterial growth incubated for 24 hrs by CLSI protocol based two fold serial dilution method; format: functional
[11] = Hemolytic activity in human RBC assessed as hemolysis at 1 to 32 ug/ml measured after 60 mins by microplate reader assay relative to control; format: toxicity, cell-based, Erythrocyte; conditions: red blood cells (erythrocytes), at 1 to 32 µg/mL, dose 1-32 µg/ml, read-out: Activity
Staphylococcus aureus [12] = test: Antibacterial activity against methicillin-resistant Staphylococcus aureus N315 assessed as inhibition of bacterial growth at 0.25 to 64 ug/ml incubated for 24 hrs by Alamar blue assay; format: functional, organism-based; conditions: dose 0.25-64 µg/ml
Cell membrane [13] = test: Induction of cell membrane disruption in methicillin-resistant Staphylococcus aureus N315 assessed as increase in nucleotides leakage at 0.5 to 6 ug/ml incubated under agitation condition by UV absorption based analysis; format: subcellular; conditions: dose 0.5-6 µg/ml
Staphylococcus aureus [14] = test: Antibacterial activity against methicillin-resistant Staphylococcus aureus N315 assessed as increase in germicidal effect at 0.5 ug/ml measured after 7 hrs by microplate reader assay; format: functional, organism-based; conditions: dose 0.5 µg/ml
Cell membrane [15] = test: Induction of inner membrane permeabilization in methicillin-resistant Staphylococcus aureus N315 assessed as increase in PI uptake by measuring increase in fluorescence intensity at 1 to 8 ug/ml incubated for 30 mins by calcein-AM/PI staining based fluorescence microscopic analysis; conditions: dose 1-8 µg/ml, DDE = dose-dependent effect
Staphylococcus aureus [16] = test: Antibacterial activity against methicillin-resistant Staphylococcus aureus N315 assessed as inhibition of bacterial growth at 0.5 to 16 ug/ml measured after 24 hrs by microplate reader assay; format: functional, organism-based; conditions: dose 0.5-16 µg/ml
Cell membrane [17] = test: Induction of cell membrane disruption in methicillin-resistant Staphylococcus aureus N315 assessed as increase in protein leakage at 0.5 to 6 ug/ml incubated under agitation condition by Bradford assay; conditions: dose 0.5-6 µg/ml
Cell membrane [18] = test: Induction of inner membrane permeabilization in Pseudomonas aeruginosa ATCC 27853 assessed as increase in PI uptake by measuring increase in fluorescence intensity at 1 to 8 ug/ml incubated for 30 mins by calcein-AM/PI staining based fluorescence microscopic analysis; conditions: dose 1-8 µg/ml
HEK-293T = test: Cytotoxicity against human HEK293T cells assessed as cell viability at 0.5 to 64 ug/ml incubated for 24 hrs by MTT assay; format: toxicity, cell-based; conditions: dose 0.5-64 µg/ml
HeLa = test: Cytotoxicity against human HeLa cells assessed as cell viability at 0.5 to 64 ug/ml incubated for 24 hrs by MTT assay; format: toxicity, cell-based; conditions: dose 0.5-64 µg/ml
Cell membrane [19] = test: Induction of cell membrane disruption in Pseudomonas aeruginosa ATCC 27853 assessed as increase in nucleotides leakage at 0.5 to 6 ug/ml incubated under agitation condition by UV absorption based analysis; format: subcellular; conditions: dose 0.5-6 µg/ml
Cell membrane [20] = test: Induction of cell membrane disruption in Pseudomonas aeruginosa ATCC 27853 assessed as increase in protein leakage at 0.5 to 6 ug/ml incubated under agitation condition by Bradford assay; conditions: dose 0.5-6 µg/ml
Cell membrane [21] = test: Induction of outer membrane permeabilization in Pseudomonas aeruginosa ATCC 27853 assessed as increase in NPN uptake by measuring increase in fluorescence intensity at 1 ug/ml by NPN-dye based fluorescence analysis; conditions: dose 1.0 µg/ml

Compound | MIC (Pseudomonas aeruginosa [1]) [mg/L] | MIC (Enterococcus faecalis) [mg/L] | MIC (Staphylococcus aureus [2]) [mg/L] | MIC (Acinetobacter baumannii) [mg/L] | MIC (Staphylococcus aureus [3]) [mg/L] | MIC (Escherichia coli [4]) [mg/L] | Activity (Pseudomonas aeruginosa [5]) | MIC (Pseudomonas aeruginosa [6]) [mg/L] | Activity (Staphylococcus aureus [7]) | MIC (Klebsiella pneumoniae) [mg/L] | MIC (Escherichia coli [8]) [mg/L] | MIC (Staphylococcus aureus [9]) [mg/L] | MIC (Staphylococcus aureus [10]) [mg/L] | hemolysis at 1 h [11] [%] | Activity (Staphylococcus aureus [12]) | Activity (Staphylococcus aureus [16]) | other results
Sc1nnc(COc2cccc3c2c2ccccc2n3CC2CCCCC2)o1 | 256 (≈ 651 µM) | 4 (≈ 10.2 µM) | 8 (≈ 20.3 µM) | 4 (≈ 10.2 µM) | 16 (≈ 40.7 µM) | 2 (≈ 5.08 µM) | Active | 1 (≈ 2.54 µM) | Active | 2 (≈ 5.08 µM) | 4 (≈ 10.2 µM) | 0.5 (≈ 1.27 µM) | 256 (≈ 651 µM) | – | – | – | –
Sc1nnc(Cn2c3ccccc3c3c(OCC4CC4)cccc32)o1 | 256 (≈ 728 µM) | 2 (≈ 5.69 µM) | 4 (≈ 11.4 µM) | 4 (≈ 11.4 µM) | 1 (≈ 2.85 µM) | 1 (≈ 2.85 µM) | – | 4 (≈ 11.4 µM) | Active | 4 (≈ 11.4 µM) | 2 (≈ 5.69 µM) | 0.5 (≈ 1.42 µM) | 256 (≈ 728 µM) | < 3 | Active | Active | Activity (Cell membrane [13]): Active; Activity (Staphylococcus aureus [14]): Active; Activity (Cell membrane [15]): Dde; Activity (Cell membrane [17]): Active
CCn1c2ccccc2c2c(OCc3nnc(S)o3)cccc21 | 256 (≈ 787 µM) | 8 (≈ 24.6 µM) | 4 (≈ 12.3 µM) | 8 (≈ 24.6 µM) | 8 (≈ 24.6 µM) | 8 (≈ 24.6 µM) | Active | 0.5 (≈ 1.54 µM) | – | 4 (≈ 12.3 µM) | 8 (≈ 24.6 µM) | 2 (≈ 6.15 µM) | 256 (≈ 787 µM) | – | – | – | –
CCn1c2ccccc2c2c(OCc3nnn[nH]3)cccc21 | 256 (≈ 873 µM) | 4 (≈ 13.6 µM) | 32 (≈ 109 µM) | 64 (≈ 218 µM) | 32 (≈ 109 µM) | 64 (≈ 218 µM) | – | 1 (≈ 3.41 µM) | – | 64 (≈ 218 µM) | 8 (≈ 27.3 µM) | 2 (≈ 6.82 µM) | 128 (≈ 436 µM) | < 3 | Active | Active | Activity (Cell membrane [18]): Active; Activity (HEK-293T): Non-Toxic; Activity (HeLa): Non-Toxic; Activity (Cell membrane [19]): Active; Activity (Cell membrane [20]): Active; Activity (Cell membrane [21]): Active
